Data as given in publication PMC9093036, “Discovery of METTL3 Small Molecule Inhibitors by Virtual Screening of Natural Products” (Frontiers in Pharmacology, 2022).

Target: T1, METTL3 (Homo sapiens, UniProt Q86U44)
T1 construct: METTL3-METTL14 complex (wild type); with METTL14
Assay: in vitro methyltransferase assay with omission of components, m6A by LC-MS/MS
Format: biochemical
From the text: in vitro methyltransferase assay with omission of components, m6A by LC-MS/MS on METTL3 | METTL[…]TL14 (wild type), SAM, and RNA are essential for m^6A formation

T1 sequence (Q86U44 2-580): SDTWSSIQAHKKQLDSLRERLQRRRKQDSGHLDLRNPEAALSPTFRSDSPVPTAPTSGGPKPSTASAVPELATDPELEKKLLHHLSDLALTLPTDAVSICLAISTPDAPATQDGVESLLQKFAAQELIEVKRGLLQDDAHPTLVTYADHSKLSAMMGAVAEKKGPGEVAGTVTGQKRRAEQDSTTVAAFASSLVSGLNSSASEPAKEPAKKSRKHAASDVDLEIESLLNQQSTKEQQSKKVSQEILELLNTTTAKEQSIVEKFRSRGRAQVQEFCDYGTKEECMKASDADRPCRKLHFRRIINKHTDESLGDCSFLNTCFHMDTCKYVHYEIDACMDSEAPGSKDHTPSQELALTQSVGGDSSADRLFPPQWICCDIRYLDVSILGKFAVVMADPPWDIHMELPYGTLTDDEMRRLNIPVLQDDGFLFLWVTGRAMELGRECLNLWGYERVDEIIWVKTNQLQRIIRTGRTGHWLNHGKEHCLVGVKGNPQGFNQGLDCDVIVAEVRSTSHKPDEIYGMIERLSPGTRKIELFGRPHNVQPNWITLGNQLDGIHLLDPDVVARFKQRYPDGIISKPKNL
T1 sequence (Q9HCE5 whole entry partner): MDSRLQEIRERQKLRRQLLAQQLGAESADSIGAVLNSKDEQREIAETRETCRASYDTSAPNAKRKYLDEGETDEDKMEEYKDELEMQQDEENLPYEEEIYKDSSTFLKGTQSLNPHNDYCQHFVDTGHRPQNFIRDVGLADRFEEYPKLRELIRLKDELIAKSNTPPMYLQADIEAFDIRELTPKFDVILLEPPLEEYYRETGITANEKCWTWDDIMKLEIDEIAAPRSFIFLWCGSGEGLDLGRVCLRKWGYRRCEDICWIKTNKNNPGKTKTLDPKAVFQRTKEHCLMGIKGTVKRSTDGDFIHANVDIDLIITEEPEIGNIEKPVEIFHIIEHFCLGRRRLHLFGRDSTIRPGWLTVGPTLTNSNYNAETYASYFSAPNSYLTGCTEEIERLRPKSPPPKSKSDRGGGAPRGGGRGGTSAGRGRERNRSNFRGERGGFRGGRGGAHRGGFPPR

Structure (SMILES): C[S+](CC[C@H](N)C(=O)[O-])C[C@H]1O[C@@H](n2cnc3c(N)ncnc32)[C@H](O)[C@@H]1O (stereo partly shown) [SAM]
- components essential for m6A formation: METTL3-METTL14 (wild type), SAM, and RNA are essential for m^6A formation
